Results on 28 compounds are retold here after patent US8338565B2, “Macrocyclic compounds for inhibition of tumor necrosis factor alpha” (Ensemble Therapeutics Corporation, priority 2008, dated 2012).

Numbered stars: 1 amine (or outer) side, 2 acyl side, 3 side chain; on linkers, the order of the positions; unused ones are H or OH. Bridge positions count the residues as written; N and C are the ends. Square brackets hold non-standard residues; d marks the D form. Peptide text beside a SMILES is read from it. Bip = N[C@@H](Cc1ccc(-c2ccccc2)cc1)C(=O)O; Phe(4-NH2) = Nc1ccc(C[C@H](N)C(=O)O)cc1; Diglycolyl = O=C(COCC(=O)[*:2])[*:1]; d(hPhe) = N[C@H](CCc1ccccc1)C(=O)O; d2Thi = N[C@H](Cc1cccs1)C(=O)O; Suc = O=C(CCC(=O)[*:2])[*:1]

T1 sequence (P01375 77-233 limits assumed, species assumed): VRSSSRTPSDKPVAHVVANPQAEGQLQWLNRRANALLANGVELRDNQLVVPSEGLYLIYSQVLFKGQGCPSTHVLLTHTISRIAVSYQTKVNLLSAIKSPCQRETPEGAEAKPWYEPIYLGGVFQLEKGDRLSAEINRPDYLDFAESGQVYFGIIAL

The first assay has as its target T1, TNFα / TNFα receptor (TNFα R1/Fc) (Homo sapiens, UniProt P01375).
T1 construct: purchased R&D Systems
Briefly: Inhibition of binding of TNFα to the TNFα receptor (plate ELISA competition). As to conditions: Activity (IC50, inhibition of TNFα binding to TNFα R1/Fc), Table 2. Put shortly: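 Compound dilutions were preincubated 30 min at RT with 8.33 nM TNFα R1/Fc in PBST with 2% DMSO, then added to wells coated with 15 nM TNFα for 30 min. Bound receptor was detected with HRP anti-human Fc and TMB, read as A450.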
(ELISA stands for enzyme-linked immunosorbent assay.)
Regarding `O=C1COc2ccc(cc2)C[C@@H](C(=O)N2CCC[C@@H]2C(=O)O)NC(=O)[C@@H](CCc2ccccc2)NC(=O)[C@H](Cc2ccc(-c3ccccc3)cc2)NC(=O)[C@@H](Cc2cccs2)N1` [Compound 303], the IC50 was 10 to 30 µM.

The assay is the same for the next values; noted with them: Table 2; read-out: Activity (IC50, inhibition of TNFα binding to TNFα R1/Fc).
On to `O=C(O)[C@@H]1Cc2ccc(cc2)NC(=O)[C@H](O)[C@@H](O)C(=O)N[C@@H](Cc2cccs2)C(=O)N[C@H](Cc2ccc(-c3ccccc3)cc2)C(=O)N[C@H](Cc2ccccc2)C(=O)N1` [Compound 272], for which the IC50 was > 100 µM.

As to `O=C(O)[C@@H]1Cc2ccc(cc2)NC(=O)[C@H](O)[C@@H](O)C(=O)N[C@H](Cc2cccs2)C(=O)N[C@H](Cc2ccc(-c3ccccc3)cc2)C(=O)N[C@@H](Cc2ccccc2)C(=O)N1` [Compound 274], the IC50 was > 100 µM.

For `O=C1N[C@@H](C(=O)O)Cc2ccc(cc2)NC(=O)[C@H](O)[C@@H](O)C(=O)N[C@H](Cc2cccs2)C(=O)N[C@@H](Cc2ccc(-c3ccccc3)cc2)C(=O)N[C@H]1Cc1ccccc1` [Compound 275], the IC50 was > 100 µM.

`O=C(O)[C@H]1Cc2ccc(cc2)NC(=O)[C@H](O)[C@@H](O)C(=O)N[C@H](Cc2cccs2)C(=O)N[C@H](Cc2ccc(-c3ccccc3)cc2)C(=O)N[C@H](Cc2ccccc2)C(=O)N1` [Compound 276]: the IC50 is > 100 µM.

As to `O=C1N[C@H](Cc2ccccc2)C(=O)N[C@@H](C(=O)O)Cc2ccc(cc2)NC(=O)[C@H](O)[C@@H](O)C(=O)N[C@@H](Cc2cccs2)C(=O)N[C@H]1Cc1ccc(-c2ccccc2)cc1` [Compound 277], the IC50 is > 100 µM. On to `O=C1N[C@@H](C(=O)O)Cc2ccc(cc2)NC(=O)[C@H](O)[C@@H](O)C(=O)N[C@@H](Cc2cccs2)C(=O)N[C@H](Cc2ccc(-c3ccccc3)cc2)C(=O)N[C@H]1Cc1ccccc1` [Compound 278], for which the IC50 was > 100 µM. Consider `O=C1N[C@@H](C(=O)O)Cc2ccc(cc2)NC(=O)[C@H](O)[C@@H](O)C(=O)N[C@@H](Cc2cccs2)C(=O)N[C@H](Cc2ccc(-c3ccccc3)cc2)C(=O)N[C@H]1Cc1ccccc1` [Compound 279], for which the IC50 was > 100 µM. On the same count and under the same terms, then `O=C1N[C@@H](Cc2ccccc2)C(=O)N[C@@H](C(=O)O)Cc2ccc(cc2)NC(=O)[C@H](O)[C@@H](O)C(=O)N[C@@H](Cc2cccs2)C(=O)N[C@H]1Cc1ccc(-c2ccccc2)cc1` [Compound 280], with > 100 µM; and `O=C1N[C@@H](C(=O)O)Cc2ccc(cc2)NC(=O)[C@H](O)[C@@H](O)C(=O)N[C@H](Cc2cccs2)C(=O)N[C@H](Cc2ccc(-c3ccccc3)cc2)C(=O)N[C@H]1Cc1ccccc1` [Compound 281], with > 100 µM; and `O=C(O)[C@@H]1Cc2ccc(cc2)NC(=O)[C@H](O)[C@@H](O)C(=O)N[C@H](Cc2cccs2)C(=O)N[C@@H](Cc2ccc(-c3ccccc3)cc2)C(=O)N[C@H](Cc2cccs2)C(=O)N1` [Compound 283], with < 10 µM. Still for that read-out and setting: then `O=C(O)[C@@H]1Cc2ccc(cc2)NC(=O)[C@H](O)[C@@H](O)C(=O)N[C@H](Cc2cccs2)C(=O)N[C@@H](Cc2ccc(-c3ccccc3)cc2)C(=O)N[C@H](Cc2ccco2)C(=O)N1` [Compound 284], with 10 to 30 µM. Still for that read-out and setting: as for `N#Cc1ccccc1C[C@H]1NC(=O)[C@H](Cc2ccc(-c3ccccc3)cc2)NC(=O)[C@@H](Cc2cccs2)NC(=O)[C@H](O)[C@@H](O)C(=O)Nc2ccc(cc2)C[C@@H](C(=O)O)NC1=O` [Compound 285], the figure is 30 to 100 µM; as for `O=C(O)[C@@H]1Cc2ccc(cc2)NC(=O)[C@H](O)[C@@H](O)C(=O)N[C@H](Cc2cccs2)C(=O)N[C@@H](Cc2ccc(-c3ccccc3)cc2)C(=O)N[C@H](Cc2ccccc2Cl)C(=O)N1` [Compound 286], 10 to 30 µM; as for `O=C(O)[C@@H]1Cc2ccc(cc2)NC(=O)[C@H](O)[C@@H](O)C(=O)N[C@H](Cc2cccs2)C(=O)N[C@@H](Cc2ccc(-c3ccccc3)cc2)C(=O)N[C@H](Cc2ccc(Cl)cc2Cl)C(=O)N1` [Compound 287], 10 to 30 µM. Turning to `O=C(O)[C@@H]1Cc2ccc(cc2)NC(=O)[C@H](O)[C@@H](O)C(=O)N[C@H](Cc2cccs2)C(=O)N[C@@H](Cc2ccc(-c3ccccc3)cc2)C(=O)N[C@H](Cc2ccc(F)cc2)C(=O)N1` [Compound 288], the IC50 is > 100 µM. Still for that read-out and setting: then `O=C1COc2ccc(cc2)C[C@@H](C(=O)O)NC(=O)[C@H](c2ccccc2)NC(=O)[C@H](Cc2ccc(-c3ccccc3)cc2)NC(=O)[C@H](Cc2cccs2)N1` [Compound 291], with > 100 µM; and `O=C(O)[C@@H]1Cc2ccc(cc2)NC(=O)[C@H](O)[C@@H](O)C(=O)N[C@H](Cc2cccs2)C(=O)N[C@@H](Cc2ccc(Br)cc2)C(=O)N[C@H](Cc2ccccc2)C(=O)N1` [Compound 293], with > 100 µM; and `O=C1N[C@H](Cc2ccccc2)C(=O)N[C@H](C(=O)O)Cc2ccc(cc2)NC(=O)[C@H](O)[C@@H](O)C(=O)N[C@H](Cc2cccs2)C(=O)NC1c1ccc(Br)cc1` (stereo partly shown) [Compound 294], with 30 to 100 µM. Same read-out and setting: as for `NCCCC[C@H](NC(=O)[C@@H]1Cc2ccc(cc2)NC(=O)CCC(=O)N[C@H](CCc2ccccc2)C(=O)N[C@@H](Cc2ccc(-c3ccccc3)cc2)C(=O)N[C@H](Cc2ccccc2)C(=O)N1)C(=O)O` [Compound 295] ([d(hPhe)][Bip][dF][Phe(4-NH2)]K-OH; linker N-4 via Suc), the figure is 10 to 30 µM; as for `NCCCC[C@H](NC(=O)[C@@H]1Cc2ccc(cc2)NC(=O)[C@H](O)[C@@H](O)C(=O)N[C@H](Cc2cccs2)C(=O)N[C@@H](Cc2ccc(-c3ccccc3)cc2)C(=O)N[C@H](Cc2ccccc2)C(=O)N1)C(=O)O` [Compound 296], 30 to 100 µM. Still for that read-out and setting: then `O=C1COc2ccc(cc2)C[C@@H](C(=O)N2CCC(C(=O)O)CC2)NC(=O)[C@@H](CCc2ccccc2)NC(=O)[C@H](Cc2ccc(-c3ccccc3)cc2)NC(=O)[C@@H](Cc2cccs2)N1` [Compound 306], with < 10 µM; and `O=C(O)CC[C@H](NC(=O)[C@@H]1Cc2ccc(cc2)OCC(=O)N[C@H](Cc2cccs2)C(=O)N[C@@H](Cc2ccc(-c3ccccc3)cc2)C(=O)N[C@H](CCc2ccccc2)C(=O)N1)C(=O)O` [Compound 308], with > 100 µM; and `O=C(O)C[C@@H]1Cc2ccc(cc2)NC(=O)[C@H](O)[C@@H](O)C(=O)N[C@H](Cc2cccs2)C(=O)N[C@@H](Cc2ccc(-c3ccccc3)cc2)C(=O)N[C@H](Cc2ccccc2)C(=O)N1` [Compound 309], with 10 to 30 µM.

`O=C1COCC(=O)N[C@H](Cc2cccs2)C(=O)N[C@@H](Cc2ccc(-c3ccccc3)cc2)C(=O)N[C@H](Cc2ccccc2)C(=O)N[C@H](C(=O)O)Cc2ccc(cc2)N1` [Compound 310] ([d2Thi][Bip][dF][Phe(4-NH2)]-OH; linker N-4 via Diglycolyl): the IC50 was > 100 µM. The same measure, in the same setting: as for `O=C(O)[C@@H]1Cc2ccc(cc2)NC(=O)[C@H](O)[C@@H](O)C(=O)N[C@H](Cc2cccnc2)C(=O)N[C@@H](Cc2ccc(-c3ccccc3)cc2)C(=O)N[C@H](Cc2ccccc2)C(=O)N1` [Compound 311], the figure is 30 to 100 µM; as for `O=C(O)[C@@H]1Cc2ccc(cc2)NC(=O)[C@H](O)[C@@H](O)C(=O)N[C@H](c2ccccc2)C(=O)N[C@@H](Cc2ccc(-c3ccccc3)cc2)C(=O)N[C@H](Cc2ccccc2)C(=O)N1` [Compound 312], > 100 µM; as for `N#Cc1ccccc1C[C@H]1NC(=O)[C@H](O)[C@@H](O)C(=O)Nc2ccc(cc2)C[C@@H](C(=O)O)NC(=O)[C@@H](Cc2ccccc2)NC(=O)[C@H](Cc2ccc(-c3ccccc3)cc2)NC1=O` [Compound 314], 10 to 30 µM.
